According to BindingDB's records for doi:10.1021/jm049513x (University of Bonn, 2005):

Assay: Percent inhibition of [3H]PSB-11 binding to adenosine A3 receptor at 10 uM

## CCCn1c(=O)c2nc(C3CC(C)(C)N([O])C(C)(C)C3)[nH]c2n(CCC)c1=O
  Ki: 45 nM
